Common to all, as to type: cell-based
For one assay, the system named is M. abscessus MABS1. The assay can be described thus: MIC (Table 8). Conditions: Mycobacteroides abscessus.
The subject of the next assay is M. abscessus MABS2. The assay can be described thus: MIC (Table 8). Conditions: Mycobacteroides abscessus.
The test system of another assay is M. abscessus MABS4. The assay can be described thus: MIC (Table 8). Conditions: Mycobacteroides abscessus.
The next assay concerns M. abscessus MABS7. The assay can be described thus: MIC (Table 8). Conditions: Mycobacteroides abscessus.
Another assay has as its system M. abscessus MABS9. The assay can be described thus: MIC (Table 8). The settings on record: Mycobacteroides abscessus.
For the next assay, the system named is M. abscessus MABS11. The assay can be described thus: MIC (Table 8). Conditions: Mycobacteroides abscessus.
In assay [1] the test system is M. abscessus MABS1 biofilm. The assay can be described thus: MBEC assay (minimum biofilm eradication concentration). The settings on record: 18 h challenge. An excerpt:
(§1) In this study the MBEC assay was followed as described in the Innovotech Procedural Manual, version 2.1 with minor modifications to assess the antibiofilm activity of the antimicrobial compounds under investigation. The MBEC value refers to the Minimum Biofilm Eradication Concentration of each antimicrobial for each strain. The MBEC value is defined as the minimum antibiotic concentration where the optical density (OD) value at recovery is less than 10% of the control OD value and there is no growth observed with visual examination of the wells.
(§2) Step 1: Inoculation. For resuscitation, all strains were streaked on TSA plates, except for the mycobacteria which were streaked on 7H10 media, from the frozen stocks, and grew overnight at 37° C. (Table 6). From the plate, one colony was picked for inoculation in organism specific medium (OSM) and grown in a shaker incubator at 37° C. at 225 RPM until mid-log phase (OD 0.2-0.8). At mid log phase the culture was diluted in OSM medium (Table 6) to an OD of 0.05. 150 μL of it were aliquoted in each corresponding well in a 96-well MBEC plate (inoculation plate). Subsequently, the MBEC plates were incubated static at 37° C. for the appropriate time for each species (Table 7). During incubation, biofilm formed on the pegs.
(§3) Step 2: Challenge. Following incubation, the peg lid with the biofilm was washed twice in PBS and placed on a second 96-well plate with 200 μl of antibiotic dilutions (challenge plate). The challenge plate was then incubated at 37° C. for 18 h to allow exposure of the biofilm to antibiotics.
(§4) Step 3: Recovery. In the final step, the peg lid (with the biofilm after treatment with the antibiotics) was washed again twice in PBS and placed on a third 96-well plate (recovery plate) with 200 μl growth medium in each well to allow growth of any bacterial cells resistant to antibiotics at any concentration. The recovery of resistant cells was assessed by an end-point measurement of the optical density at 600 nm (OD600) for each well with a plate reader (FIG. 4).

The test system of assay [2] is M. abscessus MABS11 biofilm. The assay is described as above. The settings on record: 18 h challenge.
Excerpt: as §1, §2, §3, §4

For assay [3], the system named is M. abscessus MABS2 biofilm. Described as above. Conditions: 18 h challenge.
Excerpt: as §1, §2, §3, §4

Assay [4] deals with M. abscessus MABS4 biofilm. The assay is described as above. Conditions: 18 h challenge.
Excerpt: as §1, §2, §3, §4

In assay [5] the test system is M. abscessus MABS7 biofilm. Described as above. Conditions: 18 h challenge.
Excerpt: as §1, §2, §3, §4

The subject of assay [6] is M. abscessus MABS9 biofilm. The description is as above. Conditions: 18 h challenge.
Excerpt: as §1, §2, §3, §4

For assay [7], the system named is M. abscessus biofilm (six clinical isolates). The assay can be described thus: MBEC assay, summary over six clinical isolates. The settings on record: at high concentrations (amikacin, clarithromycin: apart from MABS4).
Excerpt: as §1, §2, §3
Step 3: Recovery. […] The recovery of resistant cells was assessed by an end-point measurement of the optical density at 600 nm (OD600) for each well with a plate reader (FIG. 4).
This is possibly, in part, due to the variable clumping of the cells observed in the biofilm biomass on the pegs. The clumping of the cells also impacted the OD readings. […] For replicate experiments with variable results, the final MBEC values were determined based on the higher MBEC concentration observed among the replicates.

Assay [8] has as its system M. avium strain 104 (MAH 104) in THP-1 macrophages. The assay can be described thus: Mycobacterial survival (CFU) in infected THP-1 macrophages. Conditions: 4-day and 7-day, drugs at MIC. As for the experimental part: THP-1 macrophages were differentiated with 50 ng/ml PMA for 24 hours, followed by 24 hours in media prior to infection. Differentiated THP-1 macrophages were either infected with M. avium strains or M. abscessus strains for 1 hour with an multiplicity of infection (MOI) of 5 or uninfected. Cells were washed twice, followed by 1 hour of antibiotic treatment with 200 μg/ml of amikacin to remove extracellular bacteria. After the antibiotic step, cells were washed once more and BisEDT (BIZ) or amikacin was added once to selected wells (see in vitro doses below).
The treatments included: vehicle, amikacin, Soluble BisEDT (S Biz), Insoluble BisEDT (I Biz), and amikacin+BisEDT. The time points for sample preparation were 72 h for M. abscessus strains and 4- and 7-days post infection for M. avium strains. At the indicated timepoints cell media was removed and replaced with 400 ul of 0.1% triton x-100 in H2O for lysis. Wells were pipetted 25 times to disrupt cells then diluted and plated for CFU enumeration.

Converted amounts (≈) assume the structure as drawn.

The record followed here is US20250090576A1, “METHODS FOR TREATING NONTUBERCULOUS MYCOBACTERIA DISEASES” (Microbion Corporation, priority 2022, published 2025).

Take `CC[C@H]1OC(=O)[C@H](C)[C@@H](O[C@H]2C[C@@](C)(OC)[C@@H](O)[C@H](C)O2)[C@H](C)[C@@H](O[C@@H]2O[C@H](C)C[C@H](N(C)C)[C@H]2O)[C@](C)(OC)C[C@@H](C)C(=O)[C@H](C)[C@@H](O)[C@]1(C)O` [Clarithromycin]: the minimum inhibitory concentration (MIC) against M. abscessus MABS1 was found to be 16 µg/mL (≈ 21.4 µM); against M. abscessus MABS2, 4 µg/mL (≈ 5.35 µM); against M. abscessus MABS4 it was 0.125 µg/mL (≈ 0.167 µM); against M. abscessus MABS7 it was 0.5 µg/mL (≈ 0.668 µM); against M. abscessus MABS9, 0.25 µg/mL (≈ 0.334 µM); in the assay with M. abscessus MABS11, 2 µg/mL (≈ 2.67 µM). The MBEC in [1] was >32 µg/mL; in [2], “>=32 μg/mL”; in assay [3], >32 µg/mL; in assay [4], “<=4 μg/mL”; in assay [4] (listed as clarithromycin), 4 µg/mL; in [5], >8 µg/mL. Also, in [6], the MBEC is >8 µg/mL. Further, the “biofilm susceptibility, in words” value in [7] was “resistance”.

Take `CO[C@@]1(NC(=O)Cc2cccs2)C(=O)N2C(C(=O)O)=C(COC(N)=O)CS[C@@H]21` [Cefoxitin]: the MIC stood at 8 µg/mL (≈ 18.7 µM) in the assay on M. abscessus MABS1; 8 µg/mL (≈ 18.7 µM) with M. abscessus MABS2; 16 µg/mL (≈ 37.4 µM) in the assay with M. abscessus MABS4; 16 µg/mL (≈ 37.4 µM) with M. abscessus MABS7; 32 µg/mL (≈ 74.9 µM) in the assay with M. abscessus MABS9; 16 µg/mL (≈ 37.4 µM) against M. abscessus MABS11. The MBEC in assay [1] was >128 µg/mL; in assay [2], >256 µg/mL; in assay [3] it was >128 µg/mL; in assay [4], >128 µg/mL; in assay [5], >128 µg/mL; in assay [6], >256 µg/mL. Further, the “biofilm susceptibility, in words” value in assay [7] is “resistance”.

With `C1C[S][Bi]([S]CC[S][Bi]2[S]CC[S]2)[S]1` [BisEDT in DMSO], the “mycobacterial survival (CFU, bacterial load) in THP-1 macrophages, in words” value in [8] is given as “bacteriostatic effect”.

Consider `C[C@@H](O)[C@H]1C(=O)N2C(C(=O)O)=C(SCCN=CN)C[C@H]12` [Imipenem], for which the MIC against M. abscessus MABS1 was 8 µg/mL (≈ 26.7 µM); with M. abscessus MABS2, 1 µg/mL (≈ 3.34 µM); with M. abscessus MABS4, 8 µg/mL (≈ 26.7 µM); with M. abscessus MABS7 it was 16 µg/mL (≈ 53.4 µM); against M. abscessus MABS9 it was 16 µg/mL (≈ 53.4 µM); against M. abscessus MABS11 it was 8 µg/mL (≈ 26.7 µM). Also, the MBEC in assay [1] was >32 µg/mL; in [2], >64 µg/mL; in [3], >16 µg/mL; in assay [4], >64 µg/mL; in assay [5] it was >64 µg/mL; in [6] it was >64 µg/mL.
